Legend:
[1] = system: streptozotocin-induced diabetic rats; assay: Anti-hyperglycemic activity of bitter melon extracts in streptozotocin-induced diabetic rats (blood glucose); format: in vivo, Wistar Albino male rats; conditions: extracts 250 mg/kg, metformin 150 mg/kg
Method: (§1) This and related experiments subsequently were published (Clouatre et al., 2011.) Wistar Albino male rats 12 weeks of age were obtained from St John's Pharmacy College Animal House, India and handled according to institutional practices. […] All rats were fed a standard rat chow diet ad libitum from Sai Durga Feed, Bangalore; water also was supplied ad libitum. Following 7 days acclimatization, one half of the rats were fasted for 24 hours and then injected with freshly prepared STZ in citrate buffer [[…]] (45 mg/kg, i.p). After one week, rats with marked hyperglycemia (fasting blood glucose >300 mg/dL) were used as the diabetic rats.
(§2) Extracts 1-4 were produced and preserved via different methods attempting to retain efficacies reported for macerated fresh fruit preparations. EX-1 was a vacuum-dried powder of the macerated extract of fresh fruit (˜25:1). EX-2 was a freeze-dried powder of the macerated extract of fresh fruit (˜25:1). EX-3 was a spray-dried powder of the macerated extract of fresh fruit (˜25:1). EX-4 was a vacuum-dried powder of the macerated extract of fresh fruit adsorbed onto powdered vacuum-dried fresh fruit (˜15:1). Dosages of the extracts (mg/kg bodyweight/day) were 50 and 250 mg/kg as indicated. After an overnight fast, the extract samples suspended in 5% gum acacia were administered to the animals by gastric intubations with a syringe.
(§3) For test purposes, glucose was given orally by intubation as a 40% solution (1 g/kg body wt). Blood samples following the glucose challenge were collected for the measurement of blood glucose from the tail vein at 0, 1, 2, 3 and 4 hrs. The blood glucose level was determined by using an electronic glucometer (Accu Check, Roche Diagnostic).
Next, the anti-hyperglycemic activity of bitter melon extracts was studied in streptozotocin-induced diabetic rats described above.

Normal Rats = assay: Hypoglycemic activity of bitter melon extracts in normal rats (blood glucose after oral glucose challenge); format: in vivo, Wistar Albino male rats; conditions: for hypoglycemia in normal animals (glucose <70 mg/dL in this model): 50 mg/kg
Method: as §1, §2, §3
First, the hypoglycemic activity of bitter melon extracts was studied in normal rats.

CN(C)C(=N)N=C(N)N [Metformin, metformin]
reduced blood glucose, percent ([1]; diabetic animals, at 4 hours): 53.52 percent (mg %) | Blood Glucose Level, Treatment +1 hr ([1]; diabetic rats, +1 hr): 271.6 ± 4.0 mg % | Blood Glucose Level, Treatment +2 hr ([1]; diabetic rats, +2 hr): 214.4 ± 3.2 mg % | percent reduction of blood sugar level compared with initial level of blood glucose (0 h) ([1]; diabetic rats, +2 hr): (34.9) percent | Blood Glucose Level, Treatment +3 hr ([1]; diabetic rats, +3 hr): 176.0 ± 6.7 mg % | percent reduction of blood sugar level compared with initial level of blood glucose (0 h) ([1]; diabetic rats, +3 hr): (46.4) percent | Blood Glucose Level, Treatment +4 hr ([1]; diabetic rats, +4 hr): 153.0 ± 3.3 mg % | percent reduction of blood sugar level compared with initial level of blood glucose (0 h) ([1]; diabetic rats, +4 hr): (53.5) percent | Blood Glucose Level, Initial (0 hr) ([1]; diabetic rats, initial value 0 hr): 329.2 ± 5.3 mg % | hypoglycemia in normal animals (glucose <70 mg/dL in this model) (Normal Rats): resulted in hypoglycemia | Blood Glucose Level, Treatment +1 hr (Normal Rats; 50 mg/kg oral, +1 hr): 85.5 ± 1.8 mg % | Blood Glucose Level, Treatment +2 hr (Normal Rats; 50 mg/kg oral, +2 hr): 73.5 ± 1.2 mg % | percent reduction in blood sugar level compared with initial glucose value (0 h) (Normal Rats; 50 mg/kg oral, +2 hr): (34.9) percent | Blood Glucose Level, Treatment +3 hr (Normal Rats; 50 mg/kg oral, +3 hr): 66.5 ± 1.2 mg % | percent reduction in blood sugar level compared with initial glucose value (0 h) (Normal Rats; 50 mg/kg oral, +3 hr): (46.4) percent | Blood Glucose Level, Treatment +4 hr (Normal Rats; 50 mg/kg oral, +4 hr): 52.5 ± 0.7 mg % | percent reduction in blood sugar level compared with initial glucose value (0 h) (Normal Rats; 50 mg/kg oral, +4 hr): (53.5) percent | Blood Glucose Level, Initial (0 hr) (Normal Rats; 50 mg/kg oral, initial value 0 hr): 93.3 ± 1.3 mg % | hypoglycemia in normal animals (glucose <70 mg/dL in this model) (Normal Rats; listed as metformin): led to hypoglycemia

— US10006079B2, “Method for establishing the anti-diabetic potential of bitter melon” (Glykon Technologies Group, LLC, priority 2013, dated 2018)
